{"source": "patent US20200407712A1", "about": "“ARRAY-BASED CYCLIC PEPTIDE LIBRARIES” (HealthTell Inc., priority 2018, published 2020)", "key": {"[1]": {"experiment": "intramolecular disulfide formation by ambient air oxidation of bis-Cys peptides on SiO2 array surface after side-chain deprotection (TFA/TMS-OTf) and NH3-gas DKP detachment; fraction oxidized from MALDI relative peak intensities", "conditions": "the molecule shown is the open-chain precursor, none (dry film on SiO2, ambient air), other, 18.0 h, scale: fraction oxidized"}, "[2]": {"test_system": "Rituximab", "experiment": "Rituximab binding to constrained peptide arrays", "description": "Cyclized and linear microarrays from Click and lactam wafers were probed using a seven point dilution series of Rituximab (Creative Diagnostics, TAB-016) ranging from 24.0 nM to 0.032 nM with threefold steps. Bound Rituximab was detected using an anti-human IgG-Alexa Fluor™ 555 (Thermo-Fisher) at 4.0 nM. All incubation times were for 1 hr and washes between incubation steps were conducted using Phosphate Buffered Saline with 0.05% Tween 20 (PBST). After the secondary detection step, slides were sequentially washed using PBST, distilled water and a 90% isopropanol rinse. Slides were immediately dried by centrifugation following the isopropanol rinse. Imaged arrays were gridded using commercial software to extract intensities from individual features. Data was analyzed using a custom R script. For both chemistries tested, 24.0 nM Rituximab gave the greatest differential between linear and cyclic copies of the same peptide (present on the same array) and was used for example boxplots. […] In the peptide sequence, B and X represent lactam cyclization residues Lys and Glu respectively. Individual feature replicates for BAEANPSX (cyclic) and BAEANPS (linear) from replicate arrays assayed on two separate slides were used to prepare the boxplot. A p-value comparing the replicate feature intensities was calculated using the anova function in R."}, "[3]": {"test_system": "Rituximab", "experiment": "Rituximab binding to biotinyl peptides captured on streptavidin ELISA plates", "conditions": "streptavidin ELISA plate; Rituximab 66.0 to 0.03 nM; absorbance at 450 nm", "description": "To confirm Rituximab binding to the sequences identified in Example 22, the peptides in Table 1 were prepared by Fmoc-based solid phase synthesis. Peptides were biotinylated at either the N-terminal or through the […] side chain with a long chain biotin (LCBiot). Biotinylated peptides were bound to streptavidin ELISA plates. Rituximab in PBST was applied to the array in a dilution series ranging from 66.0 to 0.03 nM using three-fold dilution steps. Plates were incubated for 1 hr at 37° C. and washed 3× with PBST. An anti-human IgG-HRP conjugate was applied to the array at 1.0 μg/mL for 1 hr at 37° C. Plates were washed 3× with PBST and TMB substrate applied for 15 min at 37° C. followed by 2N HCl to stop the reaction. Absorbance was read at 450 nm and the median of triplicate wells plotted against mAb concentration in FIG. 19. Rituximab bound constrained peptide HTP115 but not linear version HTP113 or a constrained sequence with LCBiot at the N-terminal (HTP114). Rituximab also binds to HTP116, a biotinylated version of a cyclic disulfide sequence previously reported to bind to Rituximab (Perosa et al. Blood, 2006, 107 (3), 1070-1077)."}}}
{"compound": "COc1cc(OC)c([P+](CC(=O)N[C@@H](CCCCN)C(=O)N[C@@H](CS)C(=O)N[C@H](C(=O)N2CCC[C@H]2C(=O)NCC(=O)N[C@@H](Cc2c[nH]cn2)C(=O)N[C@@H](CS)C(=O)N[C@@H](CC(C)C)C(=O)NCCCC[C@@H]2NC(=O)[C@@H]3CCCN3C2=O)[C@@H](C)O)(c2c(OC)cc(OC)cc2OC)c2c(OC)cc(OC)cc2OC)c(OC)c1", "values": [{"measurement": "ring closure, fraction oxidized by MALDI", "setting": "[1]; 20-membered ring", "value": 0.63}]}
{"compound": "COc1cc(OC)c([P+](CC(=O)N[C@@H](CS)C(=O)N[C@H](C(=O)N2CCC[C@H]2C(=O)NCC(=O)N[C@@H](Cc2c[nH]cn2)C(=O)N[C@@H](CS)C(=O)NCCCC[C@@H]2NC(=O)[C@@H]3CCCN3C2=O)[C@@H](C)O)(c2c(OC)cc(OC)cc2OC)c2c(OC)cc(OC)cc2OC)c(OC)c1", "values": [{"measurement": "ring closure, fraction oxidized by MALDI", "setting": "[1]; 20-membered ring", "value": 0.79}]}
{"compound": "COc1cc(OC)c([P+](CC(=O)N[C@@H](CS)C(=O)N[C@H](C(=O)N[C@@H](CCC(N)=O)C(=O)N[C@@H](Cc2c[nH]cn2)C(=O)N[C@@H](Cc2ccc(O)cc2)C(=O)N[C@@H](CS)C(=O)NCCCC[C@@H]2NC(=O)[C@@H]3CCCN3C2=O)[C@@H](C)O)(c2c(OC)cc(OC)cc2OC)c2c(OC)cc(OC)cc2OC)c(OC)c1", "values": [{"measurement": "ring closure, fraction oxidized by MALDI", "setting": "[1]; 20-membered ring", "value": 0.75}]}
{"compound": "COc1cc(OC)c([P+](CC(=O)N[C@@H](CS)C(=O)N[C@@H](CS)C(=O)NCCCC[C@@H]2NC(=O)[C@@H]3CCCN3C2=O)(c2c(OC)cc(OC)cc2OC)c2c(OC)cc(OC)cc2OC)c(OC)c1", "note": "[TMPP-Ac-Cys-Cys-DKP [DKP = N-epsilon of cyclo(Lys-Pro)]]", "values": [{"measurement": "ring closure, fraction oxidized by MALDI", "setting": "[1]; 8-membered ring", "value": 0.8}]}
{"compound": "BAEANPSX", "values": [{"measurement": "change of Rituximab binding upon Click cyclization", "setting": "[2]; cyclic versus linear feature, Click array", "value": "not"}, {"measurement": "change of Rituximab binding upon lactam based cyclization", "setting": "[2]; cyclic versus linear feature, lactam array", "value": "increases"}, {"measurement": "Rituximab binding on lactam array (rank among binders)", "setting": "[2]; lactam array, 24.0 nM Rituximab", "value": "amongst the top Rituximab binders"}]}
{"compound": "LCBiot-ACPYANPSLC amide (cyclic disulfide) [HTP116, reference compound]", "values": [{"measurement": "Rituximab binding to biotinyl peptide", "setting": "[3]", "value": "binds"}]}
{"compound": "LCBiot-K(Ac)AEANPSQ amide [HTP113]", "values": [{"measurement": "Rituximab binding to biotinyl peptide", "setting": "[3]", "value": "not"}]}
{"compound": "LCBiot-cyclo[KeAEANPSQ] [HTP114]", "values": [{"measurement": "Rituximab binding to biotinyl peptide", "setting": "[3]", "value": "not"}]}
{"compound": "cyclo[KεAEANPSQ(LCBiot)] amide [HTP115]", "values": [{"measurement": "Rituximab binding to biotinyl peptide", "setting": "[3]", "value": "bound"}]}
